The values below come from US20210315970A1, “Hepatitis A Virus Replication Inhibitor Targeting mTOR” (Tokyo Metropolitan Institute of Medical Science, priority 2020, published 2021).

Data set [1] concerns subgenomic HAV RNA. The data set is described as follows: Subgenomic HAV RNA replicon replication in transfected Huh-7.5 cells. It counts as cell-based, hepatitis A virus. The procedure:
FIG. 4i Inhibition of subgenomic HAV/NLuc RNA replication in the transfected Huh-7.5 cells by three different mTOR inhibitors and DAA (30 μM 2′CMA). **P<0.01 vs. DMSO control group (one-way analysis of variance with Dunnett's multiple comparison test).
In vitro transcription of HAV or HCV RNA was performed with T7 RiboMAX Express Large Scale RNA production system (Promega) according to the manufacturer's protocol. Transfection of viral RNA was carried out in Gene Pulser Xcell Total System (Bio-Rad Laboratories) as previously described^33, or with TransIT-mRNAtransfection kit (Mirus) for HAV-Luc RNA as previously described^32.
(§1) GLuc analysis of HCV replication and dual luciferase assay for analyzing the transcriptional induction were carried out according to the previously described methods^31,32. NanoLuc activity was determined with Nano-Glo Luciferase Assay System (Promega) according to the manufacture's protocol. For virus replication assays, the medium was replaced with a drug-containing medium at 1 hour post inoculation.
In general terms: In antiviral work, replicon cells carry a viral genome segment that copies itself.

The test system of data set [2] is HAV expressing NanoLuc reporter (18f strain, HAV/NLuc). The data set is described as follows: HAV/NLuc reporter virus replication in HuH-7 cells (NanoLuc activity). It counts as cell-based, hepatitis A virus. To be noted: for virus replication compared to rapalogs that target mTOR alone: HAV, dual mTOR/PI3K inhibitors; for virus replication level reduced to (NanoLuc activity): highest dose (10 μM); for viral replication level reduced to (NanoLuc activity): HuH-7 cells infected with HAV/NLuc, drug given 1 hour after infection, 48 hours post-infection. The procedure:
(§2) HuH-7 cells were infected with HAV/NLuc and drugs were given 1 hour after infection. 48 hours later, NanoLuc activities were measured to evaluate the virus replication levels. In addition, WST-8 reagent (Cell Counting Kit-8, Dojindo) was used to evaluate cell viability after the drug treatment.
pHM175/18f-NLuc plasmid was prepared by PCR amplification of the NLuc open reading frame using pNL1.1 plasmid (Promega) as a template and primers containing a triglycine sequence flanked by XbaI and BamHI restriction enzyme sites. This PCR product was digested with these enzymes and ligated into similarly digested pSK-2A-Zeo-2B plasmid^36 to give pSK-2A-NLuc-2B plasmid. This plasmid was further digested with SacI/PflMI to cleave out the entire 2A-NLuc-2B fragment, which was ligated into similarly digested HM175/18f parental plasmid^37 to give pHM175/18f-NLuc reporter virus.
as §1

The subject of data set [3] is HAV. In words: HAV-infected mouse model, viral RNA shed in feces (real-time PCR). The format is in vivo. Particulars: Ifnar1-/- C57BL/6 mice, 15 mg/kg orally from Day 5 after infection, daily for 14 days except Day 9 and Day 16. As for the experimental part:
Type-I interferon receptor (Ifnar1)-knockout C57BL/6 mice were infected by tail vein injection of the virus equivalent to 1.7×10^9 genome copy number. Pictilisib (15 mg/kg) was administered 5 days after infection and viral RNA contained in the later shed feces was quantified by real-time PCR to analyze the antiviral action of the drug (Reference 3).
The drug was orally administered from Day 5 following the infection and continuously administered daily for 14-consecutive days except Day 9 and Day 16. The viral RNA levels shed in the feces reflect the viral load in the liver and thus the viral RNA levels in the feces were quantified. As a result, the viral RNA level was reduced to about one-tenth by administration of the drug, confirming its antiviral effect (FIG. 6).
Virus: HAV-HM175 strain, 1.7×10^9 GE, iv route
Vehicle: 0.5% methyl cellulose/0.2% Tween 80
Mice: Ifnar1^−/− C57BL/6, 5 animals/group
The drug was orally administered from Day 5 following the infection for 14 consecutive days except Day 9 and Day 16. Viral level in the feces was quantified with time because it can serve as an indicator that reflects the viral level in the liver.

The conditions of data set [4]: phase II trial; cited from earlier work.
For data set [5], the system named is HuH-7 cells. In words: Cell viability after drug treatment (WST-8, Cell Counting Kit-8). The format is cell-based, human. To be noted: at concentrations that suppress virus replication. As for the experimental part: as §2
MicroRNA-122 mimics were synthesized by Dharmacon and transfected as miRNA/miRNA* duplex by electroporation as previously described^33. Puromycin, Blasticidin and Ruxolitinib were purchased from InvivoGen. Pyridone 6 was obtained from EMD Millipore. Recombinant human IFN-λ1 and IFN-α and actinomycin D were purchased from Sigma-Aldrich. Recombinant human IFN-γ was obtained from PeproTech. PSI-7977 (sofosbuvir) was obtained from ChemScene and 2′-C-methyl adenosine (2′ CMA) was obtained from Santa Cruz Biotechnology. Cell viabilities were determined using Cell Counting Kit-8 (Dojindo) on 96-well plates according to the manufacturer's protocol.
(Tetrazolium assays rely on reduction of a dye to a coloured formazan, in cell work by metabolically active cells.)

The subject of data set [6] is HCV. The data set is described as follows: HCV replication in Huh-7.5 cells. The format is cell-based, hepatitis C virus. Particulars: RARRES3 overexpression. The procedure:
(§3) High-titer HAV (HM175/18f strain) was mycoplasma-free and was prepared as previously described^34. HAV infection was performed at a multiplicity of infection (MOI) of 10. SeV (Cantell strain) was obtained from Charles River Laboratories, and was inoculated at 50 U ml^−1 unless otherwise indicated. Infection with HCV-carrying Gaussia luciferase (GLuc) reporter was performed as previously described^32. DENV serotype 2 (olSa-054 strain) and ZIKV (MR-766 and AB-59 strains) were propagated in Vero, C6/36 or Huh-7.5 cells and inoculated at MOI=1 as previously described^35.
as §1

The test system of data set [7] is DENV. In words: DENV replication in Huh-7.5 cells. It counts as cell-based, dengue virus. Particulars: RARRES3 overexpression. The procedure: as §3
Plasmids encoding capsid and subgenomic RNA containing NS1-5 regions fused with a NanoLuc reporter flanked by 5′ and 3′ untranslated RNAs derived from DENV1 (D1/Hu/Saitama/NIID100/2014 strain) and DENV2-derived premembrane and envelope protein (olSa-054 strain) were transfected into HEK293T cells. Infectious virons secreted in the supernatant were harvested according to the previously described method^38.
Primer pair targeting DENV genomic RNA, 5′-[…]-3′ (SEQ ID NO:57) and 5′-CATCATTAAGTCGAGGGCC-3′ (SEQ ID NO:58), or primer pair targeting ZIKV genomic RNA, 5′-[…]-3′ (SEQ ID NO:59) and 5′[…]-3′ (SEQ ID NO:60) was used with RNA-direct SYBR Green Realtime PCR Master Mix (TOYOBO) to quantify DENV and ZIKV RNA abundance.

For data set [8], the system named is human rhinovirus 14 (HRV-14). The data set is described as follows: HRV-14 replication with RARRES3 overexpression. The format is cell-based.
Data set [9] has as its system HAV. In words: HAV replication in cells overexpressing RARRES3 or C113S mutant (lentiviral vectors). The format is cell-based, hepatitis A virus. Particulars: cells overexpressing the protein.
The test system of data set [10] is HAV. In words: HAV replication in Huh-7.5 cells. The format is cell-based, hepatitis A virus. Particulars: IRF1-dependent. As for the experimental part: as §3
Total RNA extraction was performed using RNeasy Mini Kit (QIAGEN), QIAamp viral RNA Mini Kit (QIAGEN) or TRIzol (Thermo Fisher). HAV genomic RNA was detected by a two-step RT-qPCR analysis using SuperScript III First-Strand Synthesis System (Thermo Fisher Scientific) and iTaq Universal SYBR Green Supermix (Bio-Rad Laboratories), or Thunderbird SYBR qPCR Mix (TOYOBO). 5′-GGTAGGCTACGGGTGAAAC-3′ (SEQ ID NO:3) and 5′-[…]-3′ (SEQ ID NO:4) were used as HAV-specific primers

Consider `C[C@@]1(O)[C@H](O)[C@@H](CO)O[C@H]1n1cnc2c(N)ncnc21` [2′CMA, 2′-C-methyl adenosine], for which the “subgenomic HAV/NLuc RNA replication” value in data set [1] (transfected Huh-7.5 cells, 2′CMA 30 μM) is given as “Inhibition”.
For the molecule `Oc1cccc(-c2nc(N3CCOCC3)c3oc4ncccc4c3n2)c1` [PI-103], in [2], the “virus replication compared to rapalogs that target mTOR alone” value is given as “one-tenth”. Besides, in data set [2] (HAV/NLuc-infected cells), the “virus replication level reduced to (NanoLuc activity)” value is given as “about one-thousandth”.
Turning to `CS(=O)(=O)N1CCN(Cc2cc3nc(-c4cccc5[nH]ncc45)nc(N4CCOCC4)c3s2)CC1` [Pictilisib], the “virus replication compared to rapalogs that target mTOR alone” value in data set [2] is listed as “one-tenth”. In [2] (HAV/NLuc-infected cells), the “virus replication level reduced to (NanoLuc activity)” value is “about one-thousandth”. In [3], the “viral RNA level in the feces reduced to” value is “about one-tenth”. The safety to human result in data set [4] is reported as “confirmed to be safe to human”.
Regarding `CCC(=O)N1CCN(c2ccc(-n3c(=O)ccc4cnc5ccc(-c6cnc7ccccc7c6)cc5c43)cc2C(F)(F)F)CC1` [Torin-1, 1-[4-[4-(1-oxopropyl)-1-piperazinyl]-3-(trifluoromethyl)phenyl]-9-(3-quinolinyl)-benzo[h]-1,6-naphthyridin-2(1H)-one], the “HAV replication (effect in words)” value in data set [2] (HAV/NLuc-infected cells) was “suppressed strongly”. Also, the “viral replication level reduced to (NanoLuc activity)” value (“viral replication level reduced” below) in [2] was “one-hundredth”. In [5], the cell viability result is “without having an influence on the cell viability”.
Consider `CO[C@H]1C[C@@H]2CC[C@@H](C)[C@@](O)(O2)C(=O)C(=O)N2CCCC[C@H]2C(=O)O[C@H]([C@H](C)C[C@@H]2CC[C@@H](OCCO)[C@H](OC)C2)CC(=O)[C@H](C)/C=C(\C)[C@@H](O)[C@@H](OC)C(=O)[C@H](C)C[C@H](C)/C=C/C=C/C=C/1C` [everolimus], for which, in data set [2], the “viral replication level reduced” value is on record as “one-twentieth”. In data set [5], the cell viability entry is given as “without having an influence on the cell viability”.
Regarding `CO[C@H]1C[C@@H]2CC[C@@H](C)[C@@](O)(O2)C(=O)C(=O)N2CCCC[C@H]2C(=O)O[C@H]([C@H](C)C[C@@H]2CC[C@@H](O)[C@H](OC)C2)CC(=O)[C@H](C)/C=C(\C)[C@@H](O)[C@@H](OC)C(=O)[C@H](C)C[C@H](C)/C=C/C=C/C=C/1C` [rapamycin], the cell viability result in [5] is “without having an influence on the cell viability”.
In the case of `CO[C@H]1C[C@@H]2CC[C@@H](C)[C@@](O)(O2)C(=O)C(=O)N2CCCC[C@H]2C(=O)O[C@H]([C@H](C)C[C@@H]2CC[C@@H](OC(=O)C(C)(CO)CO)[C@H](OC)C2)CC(=O)[C@H](C)/C=C(\C)[C@@H](O)[C@@H](OC)C(=O)[C@H](C)C[C@H](C)/C=C/C=C/C=C/1C` [temsirolimus], the “viral replication level reduced” value in [2] is listed as “one-twentieth”. The cell viability entry in data set [5] is “without having an influence on the cell viability”.

B1: RARRES3: retinoic acid receptor responder protein 3, SEQ ID NO:2, phospholipase A / acyltransferase activity (protein, listed as Homo sapiens)
chain: MASPHQEPKPGDLIEIFRLGYEHWALYIGDGYVIHLAPPSEYPGAGSSSVFSVLSNSAEVKRERLEDVVGGCCYRVNNSLDHEYQPRPVEVIISSAKEMVGQKMKYSIVSRNCEHFVTQLRYGKSRCKQVEKAKVEVGVATALGILVVAGCSFAIRRYQKKATA
Regarding B1, the “replication of subgenomic RNA replicon” value in data set [1] (Huh-7.5 cells expressing RARRES3) was “suppressed”. In data set [6], the HCV replication result is “did not restrict”. Further, the DENV replication result in data set [7] is reported as “did not restrict”. Moreover, the HRV-14 replication result in data set [8] is recorded as “did not restrict”. The HAV replication entry in data set [9] is listed as “strongly suppressed”.

B2: IFN-γ: Recombinant human IFN-γ obtained from PeproTech (protein, UniProt P01579 24-161, looked up)
Interferon gamma: QDPYVKEAENLKKYFNAGHSDVADNGTLFLGILKNWKEESDRKIMQSQIVSFYFKLFKNFKDDQSIQKSVETIKEDMNVKFFNSNKKKRDDFEKLTNYSVTDLNVQRKAIHELIQVMAELSPAAKTGKRKRSQMLFRG
Regarding B2, the HAV replication result in [10] is listed as “restricted HAV replication”.
